This is an account of results in patent US20100160293A1, “Solid Ophthalmic Drug for External Use” (priority 2005, published 2010).

Where a name gives a salt, the structure may show the parent alone.

This data set can be described thus: SKIN-CAD simulation of ketotifen fumarate concentration profile in conjunctiva. Set-up: species or system rabbit. Particulars: simulation parameter. The text has this: The above data were fed into SKIN-CAD (Biocom Systems, Inc., Fukuoka, Japan), a software for analysis of skin permeation of drugs, together with the parameters for hairless mouse skin permeation and parameters for rabbit tear fluid kinetics, to simulate a ketotifen fumarate concentration profile in rabbit's conjunctiva.
According to references, the rate of uptake of absorbed drugs by the subvascular tissues in normal capillary vessels is around 3-5% (K. Tojo, Mathematical models of transdermal and topical drug delivery, 2nd edition, Biocom Systems, Fkuoka, Japan, 2005), and the above transfer rate of 3% (i.e., the rate of uptake into the tear fluid) almost agrees with this. Based on this rate of uptake (3%), the profile of drug concentration in the conjunctiva was simulated again, this time on the assumption that the solid pharmaceutical preparation was rubbed on the skin only once, not ten times, by replacing the parameter for drug thickness in SKIN-CAD with 1/10 of the value in the above test, i.e., with 0.005 cm.
As to the concentration of the drug in the conjunctiva, the results of the above test where the solid pharmaceutical preparation was applied (Table 10, 10 times application) and a graph produced by SKIN-CAD in agreement with the results, the data after the above topical instillation (Table 13), and the result of the simulation by SKIN-CAD where the solid pharmaceutical preparation was rubbed only once (1 time application) are shown together in FIG. 9.

Where [1] appears, read: rabbit tear fluid pharmacokinetics.

`CN1CCC(=C2c3ccccc3CC(=O)c3sccc32)CC1` [ketotifen fumarate]: the “Absorption Rate Constant into Blood” value was 0.04 s⁻¹. Where the note is “device design”, the “Device/Skin Partition Coefficient” value is given as 5.80 × 10^−2 and the “Diffusion Coefficient in Device” value is 1.97 × 10^−9 cm^2/sec. Where the note is “hairless mouse skin permeation”, the “Diffusion Coefficient in Stratum Corneum” value is on record as 1.12 × 10^−11 cm^2/sec, the “Diffusion Coefficient in Viable Skin” value was 3.75 × 10^−7 cm^2/sec and the “Stratum Corneum/Viable Skin Partition Coefficient” value was 2.47 × 10^2. Besides, under setting [1], the “Elimination Rate Constant, K10” value is 0.00385 s⁻¹ and the “Volume of Distribution, V1” value was 0.008 mL.
